Each block holds one compound with its values, some of them ahead of it. Activity calls are given as the source filed them. No cut-off for these calls is given here.
Columns and labels:
[1] = Stability in phosphate buffer at 1 uM; type: physicochemical
[2] = Stability in rat plasma measured after 2 hrs by LC-MS/MS analysis; type: ADME, cell-free
[3] = Stability in rat plasma assessed as drug degradation measured after 2 hrs by LC-MS/MS analysis; type: ADME, cell-free
[4] = Stability in rat plasma assessed as drug hydrolysis measured after 2 hrs by LC-MS/MS analysis; type: ADME, cell-free
[5] = Tmax in Sprague-Dawley rat at 45 mg/kg, po by LSC analysis; type: ADME, organism-based; settings: in vivo
[6] = Cmax in Sprague-Dawley rat at 45 mg/kg, po by LSC analysis; type: ADME, organism-based; settings: in vivo
[7] = Half life in Sprague-Dawley rat at 45 mg/kg, po by LSC analysis; type: ADME, organism-based; settings: in vivo
[8] = AUC (0 to t) in Sprague-Dawley rat at 45 mg/kg, po by LSC analysis; type: ADME, organism-based; settings: in vivo
[9] = AUC (0 to infinity) in Sprague-Dawley rat at 45 mg/kg, po by LSC analysis; type: ADME, organism-based; settings: in vivo
[10] = Oral bioavailability in Sprague-Dawley rat at 45 mg/kg by LSC analysis; type: ADME, organism-based; settings: in vivo
[11] = Tmax in Sprague-Dawley rat at 22.5 mg/kg, po with free access to food and water before administration by LSC analysis; type: ADME, organism-based; settings: in vivo
[12] = Cmax in Sprague-Dawley rat at 22.5 mg/kg, po with free access to food and water before administration by LSC analysis; type: ADME, organism-based; settings: in vivo
[13] = Half life in Sprague-Dawley rat at 22.5 mg/kg, po with free access to food and water before administration by LSC analysis; type: ADME, organism-based; settings: in vivo
[14] = AUC (0 to t) in Sprague-Dawley rat at 22.5 mg/kg, po with free access to food and water before administration by LSC analysis; type: ADME, organism-based; settings: in vivo
[15] = AUC (0 to infinity) in Sprague-Dawley rat at 22.5 mg/kg, po with free access to food and water before administration by LSC analysis; type: ADME, organism-based; settings: in vivo
[16] = Oral bioavailability in Sprague-Dawley rat at 22.5 mg/kg with free access to food and water before administration by LSC analysis; type: ADME, organism-based; settings: in vivo
[17] = Tmax in Sprague-Dawley rat at 22.5 mg/kg, po by LSC analysis; type: ADME, organism-based; settings: in vivo
[18] = Cmax in Sprague-Dawley rat at 22.5 mg/kg, po by LSC analysis; type: ADME, organism-based; settings: in vivo
[19] = Half life in Sprague-Dawley rat at 22.5 mg/kg, po by LSC analysis; type: ADME, organism-based; settings: in vivo
[20] = AUC (0 to t) in Sprague-Dawley rat at 22.5 mg/kg, po by LSC analysis; type: ADME, organism-based; settings: in vivo
[21] = Oral bioavailability in Sprague-Dawley rat at 22.5 mg/kg by LSC analysis; type: ADME, organism-based; settings: in vivo
[22] = AUC (0 to infinity) in Sprague-Dawley rat at 22.5 mg/kg, po by LSC analysis; type: ADME, organism-based; settings: in vivo
[23] = Volume of distribution at steady state in Sprague-Dawley rat at 22.5 mg/kg, iv by LSC analysis; type: ADME, organism-based; settings: in vivo
[24] = Drug recovery in Sprague-Dawley rat urine at 45 mg/kg, po measured over 168 hrs by UHPLC analysis; type: ADME, organism-based; settings: read-out: Drug recovery
[25] = Drug recovery in Sprague-Dawley rat feces at 45 mg/kg, po measured over 168 hrs by UHPLC analysis; type: ADME, organism-based; settings: faeces, read-out: Drug recovery
[26] = Drug recovery in Sprague-Dawley rat bile duct at 45 mg/kg, po measured over 72 hrs by UHPLC analysis; type: ADME, organism-based; settings: read-out: Drug recovery
[27] = test system: DU-145; assay: Antitumor activity against human DU-145 cells xenografted in BALB/c nude mouse assessed as reduction in tumor size at 0.5 mg/kg measured daily for 14 days; type: functional, organism-based; settings: time 14.0 day
[28] = test system: Melanin; assay: Binding affinity to Melanin (unknown origin) assessed as binding ratio at 0.1 microg/ml measured for 2 hrs; settings: dose 0.1 µg/ml
[29] = test system: Melanin; assay: Binding affinity to Melanin (unknown origin) assessed as binding ratio at 1 microg/ml measured for 2 hrs; settings: dose 1.0 µg/ml
[30] = test system: Melanin; assay: Binding affinity to Melanin (unknown origin) assessed as binding ratio at 10 microg/ml measured for 2 hrs; settings: dose 10.0 µg/ml
[31] = Drug recovery in Long-Evans rat eye at 45 mg/kg, po measured for 72 hrs by UHPLC analysis; type: ADME, organism-based; settings: in vivo
[32] = Drug recovery in male Sprague-Dawley rat urine at 45 mg/kg, po measured upto 96 hrs by UHPLC analysis; type: ADME, organism-based; settings: read-out: Drug recovery
[33] = Drug recovery in female Sprague-Dawley rat urine at 45 mg/kg, po measured upto 96 hrs by UHPLC analysis; type: ADME, organism-based; settings: read-out: Drug recovery
[34] = Drug recovery in male Sprague-Dawley rat feces at 45 mg/kg, po measured upto 48 hrs by UHPLC analysis; type: ADME, organism-based; settings: faeces, read-out: Drug recovery
[35] = Drug recovery in female Sprague-Dawley rat feces at 45 mg/kg, po measured upto 48 hrs by UHPLC analysis; type: ADME, organism-based; settings: faeces, read-out: Drug recovery
[36] = Drug recovery in male Sprague-Dawley rat bile duct at 45 mg/kg, po measured upto 72 hrs by UHPLC analysis; type: ADME, organism-based; settings: read-out: Drug recovery
[37] = Drug recovery in female Sprague-Dawley rat bile duct at 45 mg/kg, po measured upto 72 hrs by UHPLC analysis; type: ADME, organism-based; settings: read-out: Drug recovery
[38] = Drug metabolism in Long-Evans rat at 45 mg/kg, po by UHPLC-HR-MS analysis; type: ADME, organism-based; settings: in vivo
[39] = Cmax in BALB/c nude mouse at 0.5 mg/kg, po measured at 6 hrs; type: ADME, organism-based; settings: in vivo
[40] = Cmax in BALB/c nude mouse at 0.5 mg/kg, po measured at 48 hrs; type: ADME, organism-based; settings: in vivo
[41] = Ratio of drug exposure in tumor to plasma of BALB/c mouse at 0.5 mg/kg, po; type: ADME, organism-based; settings: tumor and plasma
[42] = Drug distribution in BALB/c mouse digestive tract at 0.5 mg/kg, po by QWBA analysis; type: ADME, organism-based; settings: in vivo
[43] = Drug distribution in BALB/c mouse liver at 0.5 mg/kg, po by QWBA analysis; type: ADME, organism-based; settings: in vivo
[44] = Drug distribution in BALB/c mouse harderian gland at 0.5 mg/kg, po by QWBA analysis; type: ADME, organism-based; settings: in vivo
[45] = Drug distribution in BALB/c mouse kidney at 0.5 mg/kg, po by QWBA analysis; type: ADME, organism-based; settings: in vivo
[46] = Ratio of drug exposure in pigmented skin to plasma of C57BL/6J mouse at 0.5 mg/kg, po; type: ADME, organism-based; settings: pigmented skin and plasma
[47] = Cmax in C57BL/6J mouse harderian gland at 0.5 mg/kg, po measured at 48 hrs by QWBA analysis; type: ADME, organism-based; settings: in vivo
[48] = Cmax in C57BL/6J mouse eye at 0.5 mg/kg, po measured at 168 hrs by QWBA analysis; type: ADME, organism-based; settings: in vivo
[49] = Cmax in C57BL/6J mouse uveal tract at 0.5 mg/kg, po measured at 168 hrs by QWBA analysis; type: ADME, organism-based; settings: in vivo
[50] = AUC (0 to t ) in C57BL/6J mouse uveal tract at 0.5 mg/kg, po measured at 168 hrs by QWBA analysis; type: ADME, organism-based; settings: in vivo

Stability [1]: Stable
Stability [2]: Unstable
Stability [3]: Stable
Stability [4]: Stable
Tmax [5]: 5.5 h
Cmax [6]: 490 ng/mL
t1/2 [7]: 15.9 h
AUCt [8]: 12345 ng·h/mL
AUC [9]: 12515 ng·h/mL
F [10]: 5.62%
Tmax [11]: 8.5 h
Cmax [12]: 842 ng/mL
t1/2 [13]: 14.8 h
AUCt [14]: 23022 ng·h/mL
AUC [15]: 23274 ng·h/mL
F [16]: 20.97%
Tmax [17]: 7 h
Cmax [18]: 448 ng/mL
t1/2 [19]: 15.4 h
AUCt [20]: 11740 ng·h/mL
F [21]: 10.75%
AUC [22]: 11881 ng·h/mL
Vdss [23]: 2.04 L/kg
dose excreted at 168 h [24]: 3.38%
dose excreted at 168 h [25]: 90%
dose excreted at 72 h [26]: 4.54%
inhibition [28]: 91%
inhibition [29]: 90.1%
inhibition [30]: 82.2%
SMILES: N#Cc1ccc(O[C@H]2CC[C@H](NC(=O)c3ccc(N4CCC(CN5CCN(c6cc7c(cc6F)C(=O)N(C6CCC(=O)NC6=O)C7=O)CC5)CC4)nn3)CC2)cc1Cl (stereo not given in full) [BAVDEGALUTAMIDE]
Activity [27]: Active

Drug recovery [31]: 55.17%
dose excreted at 96 h [32]: 2.51%
dose excreted at 96 h [33]: 4.25%
dose excreted at 48 h [34]: 92%
dose excreted at 48 h [35]: 88%
dose excreted at 72 h [36]: 4.55%
dose excreted at 72 h [37]: 4.49%
Drug metabolism [38]: Metabolite_Detected
Cmax [39]: 3165 ngequiv/g
Cmax [40]: 944 ngequiv/g
Kp [41]: 3.99
Drug uptake [42]: Active
Drug uptake [43]: Active
Drug uptake [44]: Active
Drug uptake [45]: Active
Kp [46]: 1.52
Cmax [47]: 2950 ngequiv/g
Cmax [48]: 3185 ngequiv/g
Cmax [49]: 9621 ngequiv/g
AUCt [50]: 2717032 ng·h/g
SMILES: N#Cc1ccc(O[C@H]2CC[C@H](NC(=O)c3ccc(N4CCC(CN5CCN(c6cc7c(cc6F)[14C](=O)N(C6CCC(=O)NC6=O)[14C]7=O)CC5)CC4)nn3)CC2)cc1Cl (stereo not given in full)

From ChEMBL document CHEMBL5584301, “Radioactive ADME Demonstrates ARV-110's High Druggability Despite Low Oral Bioavailability” (J Med Chem, 2024)
